Source: the supplement of paper PMC8960247
Structures can show the parent of a compound that is named as a salt. ± gives the standard error.

Columns and labels:
621-102 (TSC2-deficient) = assay: relative viability vs DMSO; higher = less cytotoxic; details: serum: 10% FBS, 72 h
621-103 (TSC2-rescued) = assay: as above; details: serum: 10% FBS, 72 h
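Note: immortalized renal angiomyolipoma cells stably carrying empty vector or TSC2, dosed in 384-well plates in DMEM, viability normalized to vehicle-treated wells within each plate.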

SMILES	relative viability (621-102 (TSC2-deficient); 0.0001 µM) [%]	relative viability (621-102 (TSC2-deficient); 0.001 µM) [%]	relative viability (621-102 (TSC2-deficient); 0.01 µM) [%]	relative viability (621-102 (TSC2-deficient); 0.1 µM) [%]	relative viability (621-102 (TSC2-deficient); 1 µM) [%]	relative viability (621-102 (TSC2-deficient); 10 µM) [%]	relative viability (621-103 (TSC2-rescued); 0.0001 µM) [%]	relative viability (621-103 (TSC2-rescued); 0.001 µM) [%]	relative viability (621-103 (TSC2-rescued); 0.01 µM) [%]	relative viability (621-103 (TSC2-rescued); 0.1 µM) [%]	relative viability (621-103 (TSC2-rescued); 1 µM) [%]	relative viability (621-103 (TSC2-rescued); 10 µM) [%]
COc1ccc([C@H]2CNC(=O)C2)cc1OC1CCCC1 [S-(+)-Rolipram]	101 ± 4.1	102 ± 1.8	102 ± 3.9	101 ± 2.3	96.742 ± 0.089	103.39 ± 0.018	103 ± 5.1	100 ± 2	104 ± 3.3	104 ± 2.8	104 ± 3.2	106 ± 2.3
CN1CCC(CNc2ccc3ncc(-c4cccc(OC(F)(F)F)c4)n3n2)CC1 [SGI-1776]	93.93 ± 0.059	110 ± 1.1	98.6 ± 2.4	96.61 ± 0.13	86.6 ± 1.3	0.96 ± 0.17	94.08 ± 0.52	101 ± 1.6	101 ± 1.6	98.8 ± 2.8	82.6 ± 2	0.884 ± 0.13
O=C(Nc1cccc(Cl)c1)Nc1ncc(CCNc2ncnc3ccsc23)s1 [SNS-314 Mesylate]	107 ± 3	85.4 ± 1.4	83.06 ± 0.37	65.9 ± 0.75	79.5 ± 4.8	67.3 ± 1.1	102.7 ± 0.28	104 ± 1.1	98.4 ± 1.1	93.6 ± 1.6	89.5 ± 1.7	77.2 ± 2.1
CN1[C@@H]2C[C@@H](OC(=O)[C@H](CO)c3ccccc3)C[C@H]1[C@@H]1O[C@@H]12 [Scopolamine hydrobromide]	127 ± 2.7	119 ± 5.9	120 ± 2.6	112 ± 1.9	115.3 ± 1.1	108 ± 3.8	102 ± 4	99.3 ± 2	96.3 ± 2.5	99.3 ± 1.4	100 ± 2.1	102 ± 1.5
Cc1ncc([N+](=O)[O-])n1CC(C)O (stereo not drawn) [Secnidazole]	108.6 ± 0.66	118.1 ± 0.34	108 ± 3.4	101 ± 3.9	102.2 ± 0.53	111 ± 3	101 ± 2.1	105 ± 3.6	105 ± 4.5	105.2 ± 0.64	100 ± 4.3	93.6 ± 4.8
C#CCN(C)[C@H](C)Cc1ccccc1 [Selegiline HCl]	81.4 ± 7.3	80.4 ± 9.2	91.8 ± 7.5	102 ± 1.1	95.7 ± 3	88.1 ± 1.8	95.9 ± 3.1	92.55 ± 0.61	100 ± 1.2	109 ± 2.5	102 ± 3.7	79.5 ± 0.86
CC(C)[C@H](O)C(=O)N[C@@H](C)C(=O)N[C@@H]1C(=O)N(C)CCc2ccccc21 [Semagacestat]	117 ± 2.5	118 ± 4.2	121.4 ± 0.8	117 ± 2	118 ± 1.6	116 ± 2.2	102 ± 2.3	98.71 ± 0.85	101 ± 1.2	102.5 ± 0.4	102 ± 1.2	103 ± 1.7
N[C@@H](CC(=O)N1CCn2c(nnc2C(F)(F)F)C1)Cc1cc(F)c(F)cc1F [Sitagliptin phosphate]	98.7 ± 0.22	104.4 ± 0.16	103 ± 2.5	94 ± 4.4	96.2 ± 1.3	91.46 ± 0.51	97.02 ± 0.71	97.6 ± 1.3	98.68 ± 0.34	100 ± 2	98.8 ± 2.4	101 ± 0.53
CNC(=O)c1cc(Oc2ccc(NC(=O)Nc3ccc(Cl)c(C(F)(F)F)c3)cc2)ccn1 [Sorafenib Tosylate]	90.38 ± 0.54	99.7 ± 5.4	113 ± 6.4	110.1 ± 0.44	127 ± 1.7	82.2 ± 13	97.89 ± 0.32	102 ± 2	106 ± 1.2	102 ± 1.9	102 ± 1.6	44.5 ± 3.4
CC(C)NCC(O)c1ccc(NS(C)(=O)=O)cc1 (stereo not drawn) [Sotalol HCl]	79.7 ± 5.2	99.6 ± 3.7	108.1 ± 1	115 ± 6.1	114 ± 2.9	107 ± 6.9	92 ± 1.4	115 ± 2	113 ± 1.3	118 ± 5.8	118 ± 1.5	108 ± 1.7
Cc1cn([C@H]2C=C[C@@H](CO)O2)c(=O)[nH]c1=O [Stavudine]	75.4 ± 3.2	76.7 ± 0.81	81.206 ± 0.072	89.1 ± 8.5	83.4 ± 2.3	71.2 ± 1.9	105 ± 1.2	99.6 ± 5.1	110 ± 5.4	109 ± 5.7	93.2 ± 2.2	91.2 ± 1.3
Cc1cc(NS(=O)(=O)c2ccc(N)cc2)no1 [Sulfamethoxazole]	105 ± 5.2	104 ± 3.8	104.66 ± 0.095	97.02 ± 0.95	101.8 ± 0.93	97.2 ± 2	96.09 ± 0.3	102 ± 2.2	101 ± 3.9	101 ± 4.7	99.4 ± 6	101 ± 1.7
Nc1ccc(S(N)(=O)=O)cc1 [Sulfanilamide]	94.3 ± 1.1	108 ± 5.2	97.7 ± 2.6	99 ± 1.8	99.8 ± 2.5	92.9 ± 1.2	102 ± 3.3	102 ± 0.77	104 ± 1.8	106 ± 1.9	101 ± 2.4	96.1 ± 2.9
CCN(CC)CCNC(=O)c1c(C)[nH]c(/C=C2\C(=O)Nc3ccc(F)cc32)c1C [Sunitinib Malate]	98.8 ± 6.5	110 ± 7	107 ± 5.9	110 ± 3.6	125 ± 4.1	71 ± 1.9	102 ± 2.3	106 ± 1.5	105.8 ± 0.65	105 ± 1.8	103.2 ± 0.44	30.5 ± 0.91
Cn1c(=O)c(F)c(Nc2ccc(I)cc2F)c2c(=O)n(C[C@@H](O)CO)cnc21 [TAK-733]	101 ± 5.3	107 ± 2.2	101 ± 4.8	95.22 ± 0.047	67.4 ± 2.4	54.3 ± 0.28	97.8 ± 5.4	84.4 ± 2.9	83.5 ± 6	84.4 ± 7	60.7 ± 6.7	51.7 ± 4.3
Cc1cc(OCCCS(C)(=O)=O)cc(C)c1-c1cccc(COc2ccc3c(c2)OC[C@H]3CC(=O)O)c1 [TAK-875]	61.2 ± 7.8	61.5 ± 4	75.9 ± 5.2	80.9 ± 4.5	84.24 ± 0.76	84.2 ± 5.3	103 ± 3	102 ± 1.9	103.7 ± 0.45	102.5 ± 0.61	103 ± 3.5	95.16 ± 0.36
Nc1nc(N)c2nc(-c3cccc(O)c3)c(-c3cccc(O)c3)nc2n1 [TG100-115]	98.9 ± 7.9	105 ± 4.8	110.59 ± 0.023	112 ± 1.9	111 ± 5.8	95.6 ± 3.2	99.62 ± 0.33	99.8 ± 1.2	106 ± 4.6	99.3 ± 0.84	99.5 ± 1.8	100.3 ± 1
Cc1cc(C(C)Nc2ccccc2)c2nc(N3CCOCC3)cc(=O)n2c1 (stereo not drawn) [TGX-221]	94.1 ± 1.7	106 ± 7.4	114 ± 3.3	112 ± 3.6	114 ± 4	101 ± 1.8	98.3 ± 0.45	98.8 ± 0.21	97.7 ± 2	98.8 ± 1.6	99.4 ± 1.5	102 ± 1.8
Cc1[nH]c(/C=C2\C(=O)Nc3ccccc32)c(C)c1CCC(=O)O [TSU-68]	94 ± 1.4	106 ± 3.3	119 ± 3.6	110 ± 2.1	91.7 ± 3.8	95.8 ± 2.4	101 ± 1.9	103 ± 1.2	101 ± 2.4	102 ± 1.7	102 ± 1.9	95.7 ± 1.1
